Laboratory results: US20220211662A1, “METHOD OF TREATING CANCER BY ADMINISTERING AN EPIGALLOCATECHIN GALLATE COMBINED WITH TYROSINE KINASE INHIBITOR” (Yunnan Daye Dihong Biotechnology Co., Ltd., priority 2019, published 2022)

Legend:
[1] = tested on: A431 transplanted tumor; assay: A431 heterotransplanted tumor model in nude mouse
[2] = tested on: NCI-H1666 cells; assay: MTT cell viability, NCI-H1666 cells; format: cell-based, human; conditions: 24 hours
Description: Detection Principle: MTT method to detect cell viability
A container is best wrapped with aluminum foil paper.
Otherwise, it is difficult to reflect the real situation. […] A sample is prevented from being volatilized.

## COc1cc2ncnc(Nc3ccc(F)c(Cl)c3)c2cc1OCCCN1CCOCC1 [Gefitinib]
[1]; A431 transplanted tumor, combined use compared with Gefitinib alone treatment group
  tumor volume growth: better inhibitory effect
[2]; in the presence of EGF
  growth of NCI-H1666 cells: does not have a significant inhibitory effect
[2]; without EGF
  survival rate / growth of NCI-H1666 cells: significant inhibitory effect

## O=C(O[C@@H]1Cc2c(O)cc(O)cc2O[C@@H]1c1cc(O)c(O)c(O)c1)c1cc(O)c(O)c(O)c1 [EGCG, EPIGALLOCATECHIN GALLATE]
[1]; compared with control group
  body weight of A431 tumor-bearing mouse: promote the weight increase
